Patent US20090275085A1, “Enzyme for Obtaining Prebiotic Oligosaccharides” (CONSEJO SUPERIOR DE INVESTIGACIONES CIENTIFICAS, priority 2004, published 2009)

Columns and labels:
[1] = system: purified X. dendrorhous enzyme (F-3); test: Glycosyltransferase activity: incubating maltose (240 g/l) with the purified X. dendrorhous enzyme (F-3), HPLC analysis; format: biochemical, Xanthophyllomyces dendrorhous; details: for composition of the system: after 288 hours, maltose 240 g/l, 0.7 μg α-glucosidase, pH 5.4, 40° C., 200 rpm; for Composition of the reaction mixture: 240 g maltose/l, 0.2 M sodium acetate pH 5.4, 40° C., 150 rpm
Method: 0.7 μg of α-glucosidase from the pure solution of α-glucosidase corresponding to fraction 3 of TABLE 2 were added. […] Aliquots were extracted at different times and incubated for 5 minutes at 80° C. to inactivate the enzyme. They were diluted to 1:4 (v/v) with water, centrifuged for 5 minutes at 6000 rpm in an Eppendorf tube with a 0.45 μam filter and analyzed by HPLC liquid chromatography.

[2] = system: X. dendrorhous α-glucosidase, enzyme purified to homogeneity (F-3); test: α-glucosidase (hydrolytic) activity of the X. dendrorhous F-3 fraction on different substrates; format: biochemical, Xanthophyllomyces dendrorhous; details: for hydrolytic activity observed on substrate: enzyme purified to homogeneity (F-3); for Specific activity: F-3 fraction, purified protein, 1% concentration of substrate
Method: (§1) The cell-free fraction was obtained by centrifugation (F-0) and α-glucosidase activity in this fraction was tested, assessing the release of glucose on different substrates. A […] test and standard methodology were used. The released glucose was quantified using the glucose oxidase-peroxidase coupled reaction: 0.4 ml of the solution to be assessed was mixed with 0.1 ml of A:B solution (20:1) (A: 0.85 U/ml glucose oxidase, 0.40 U/ml peroxidase in sodium phosphate buffer pH 5; B: 0.6% O-dianisidine). It was incubated for 30 minutes at 37° C. and spectrophotometrically quantified at 450 nm. A standard glucose curve (1 to 100 μg/ml) was used. The α-glucosidase activity unit is defined as the amount of enzyme required to release 20 μg/ml of glucose under the described conditions.
The hydrolytic activity of the enzyme purified to homogeneity (F-3) following the described process was tested on different substrates.

[3] = system: X. dendrorhous extracellular fraction α-glucosidase; test: α-glucosidase activity of the X. dendrorhous extracellular (cell-free, F-0) fraction on different glucose polymers, glucose release by glucose oxidase-peroxidase; format: biochemical, Xanthophyllomyces dendrorhous; details: for α-glucosidase activity detected on substrate: cell-free fraction (F-0); for Specific activity: X. dendrorhous extracellular fraction (F-0), release of glucose
Method: The production of α-glucosidase activity was analyzed in X. dendrorhous cultures grown in minimal medium for yeasts: 0.7% YNB (Yeast Nitrogen Base w/o Amino acids, DIFCO) (w/v), 2% carbon source. The cultures were carried out in glass flasks incubated at 24° C. and with constant stirring at 160 rpm.
as §1

[4] = molecular target: X. dendrorhous α-glucosidase (purified enzyme) (Phaffia rhodozyma, UniProt A0A0U2M4R6); test: Kinetic constants of X. dendrorhous α-glucosidase glycosylhydrolase activity; format: biochemical, Xanthophyllomyces dendrorhous; details: 30 minutes, 100 ng of enzyme; starch supplied by Avebe, 8100 Da
Method: The tests were carried out in 30 minutes and with 100 ng of enzyme for each reaction. The molecular weight of the starch, supplied by Avebe, is 8100 Da.

X. dendrorhous MYA-131 = test: Degradation of starch in the medium of an X. dendrorhous culture, quantified with Lugol's iodine; format: cell-based, Xanthophyllomyces dendrorhous
Method: X. dendrorhous MYA-131 grown in 100 ml of minimal medium with starch (MMS): 0.7% YNB (Yeast Nitrogen Base w/o Amino acids, DiFCO) (w/v), 2% starch (w/v), DIFCO) was cultured to produce α-glucosidase, and the culture continued for 150 hours. Cell growth was carried out and assessed as in the previous example. The stationary phase was reached after 75 hours of growth, at 3.4 ODU660. The cell-free fraction was obtained every 5-7 hours as in EXAMPLE 1.
To that end, 0.05 ml of the cell-free fraction was mixed with 0.05 ml of 50 mM sodium phosphate buffer, pH 5.5 0.1 ml of Lugol's iodine and 2.5 ml of water were added to 0.025 ml of this mixture. The polysaccharide was spectrophotometrically quantified at 595 nm using a standard starch curve (1-10 mg/ml). The 100% starch value was that assessed in the initial culture medium which was used to carry out the inoculum. By using this methodology, a decrease of the starch in the extracellular medium for the first 30 hours of culture was not observed. 10, 20, 40 and 60% reductions of the polysaccharide concentration were obtained at 50, 60, 70 and 80 hours of culture, respectively. The last value, 60%, remained constant during prolonged growths of up to 300 hours.

Sequence of X. dendrorhous α-glucosidase (purified enzyme) (A0A0U2M4R6 entry or part of it): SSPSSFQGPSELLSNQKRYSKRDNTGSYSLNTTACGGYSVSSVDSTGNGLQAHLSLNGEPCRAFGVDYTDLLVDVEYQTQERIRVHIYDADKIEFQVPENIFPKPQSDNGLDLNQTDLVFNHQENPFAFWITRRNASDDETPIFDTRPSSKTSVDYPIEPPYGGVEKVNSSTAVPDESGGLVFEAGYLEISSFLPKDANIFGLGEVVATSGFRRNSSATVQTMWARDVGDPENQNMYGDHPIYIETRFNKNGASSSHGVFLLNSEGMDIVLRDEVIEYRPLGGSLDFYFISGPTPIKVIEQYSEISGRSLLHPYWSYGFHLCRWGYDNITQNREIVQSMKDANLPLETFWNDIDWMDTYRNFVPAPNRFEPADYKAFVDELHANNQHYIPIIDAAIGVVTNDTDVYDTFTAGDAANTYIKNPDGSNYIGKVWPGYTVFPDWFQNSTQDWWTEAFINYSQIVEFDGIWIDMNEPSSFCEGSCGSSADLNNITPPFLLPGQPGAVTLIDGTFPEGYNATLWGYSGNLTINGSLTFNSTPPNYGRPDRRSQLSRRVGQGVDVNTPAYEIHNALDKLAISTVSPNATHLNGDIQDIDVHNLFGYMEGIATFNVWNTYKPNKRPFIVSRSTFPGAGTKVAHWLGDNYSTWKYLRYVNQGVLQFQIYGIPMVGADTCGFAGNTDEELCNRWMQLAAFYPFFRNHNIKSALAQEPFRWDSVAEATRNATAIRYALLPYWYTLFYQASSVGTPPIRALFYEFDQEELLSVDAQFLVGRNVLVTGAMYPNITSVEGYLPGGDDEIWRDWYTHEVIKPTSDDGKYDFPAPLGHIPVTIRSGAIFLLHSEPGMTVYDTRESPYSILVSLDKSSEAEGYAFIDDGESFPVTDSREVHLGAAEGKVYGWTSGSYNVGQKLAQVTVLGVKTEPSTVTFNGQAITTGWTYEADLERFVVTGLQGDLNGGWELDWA

| Molecule | composition of the system [1] [g/L] | Composition of the reaction mixture ([1]; reaction time 27 h) [grams/liter] | Composition of the reaction mixture ([1]; reaction time 117 h) [grams/liter] | Composition of the reaction mixture ([1]; reaction time 143 h) [grams/liter] | Composition of the reaction mixture ([1]; reaction time 216 h) [grams/liter] | Composition of the reaction mixture ([1]; reaction time 288 h) [grams/liter] | hydrolytic activity observed on substrate [2] | Specific activity [2] [U/μg] | Vmax [4] [μg glucose min^−1] | Specific activity [3] [U/μg] | also measured |
| --- | --- | --- | --- | --- | --- | --- | --- | --- | --- | --- | --- |
| OC[C@H]1O[C@H](OC[C@H]2O[C@H](O[C@H]3[C@H](O)[C@@H](O)[C@@H](O[C@H]4[C@H](O)[C@@H](O)[C@@H](O)O[C@@H]4CO)O[C@@H]3CO)[C@H](O)[C@@H](O)[C@@H]2O)[C@H](O)[C@@H](O)[C@@H]1O [compound 7, α-D-Glu-(1→6)-α-D-Glu-(1→4)-α-D-Glu-(1→4)-α-D-Glu] | 17.6 | 0 | 8.8 | 10.1 | 14.5 | 17.6 | – | – | – | – | – |
| OC[C@H]1O[C@H](OC[C@H]2OC(O)[C@H](O)[C@@H](O)[C@@H]2O)[C@H](O)[C@@H](O)[C@@H]1O (stereo partly shown) [isomaltose] | 14.4 | 0 | 12.7 | 12.4 | 13.1 | 14.4 | No activity | – | – | – | α-glucosidase activity detected on substrate [3]: not detected |
| OC[C@H]1O[C@H](OC[C@H]2O[C@H](OC[C@H]3OC(O)[C@H](O)[C@@H](O)[C@@H]3O)[C@H](O)[C@@H](O)[C@@H]2O)[C@H](O)[C@@H](O)[C@@H]1O (stereo partly shown) [isomaltotriose] | – | – | – | – | – | – | No activity | – | – | – | α-glucosidase activity detected on substrate [3]: not detected |
| OC[C@H]1O[C@H](O[C@H]2[C@H](O)[C@@H](O)[C@@H](O[C@H]3[C@H](O)[C@@H](O)[C@@H](O[C@H]4[C@H](O)[C@@H](O)[C@@H](O[C@H]5[C@H](O)[C@@H](O)[C@@H](O[C@H]6[C@H](O)[C@@H](O)[C@@H](O[C@H]7[C@H](O)[C@@H](O)C(O)O[C@@H]7CO)O[C@@H]6CO)O[C@@H]5CO)O[C@@H]4CO)O[C@@H]3CO)O[C@@H]2CO)[C@H](O)[C@@H](O)[C@@H]1O (stereo partly shown) [maltoheptose] | – | – | – | – | – | – | – | 997 | 15 | 24 | – |
| OC[C@H]1O[C@H](O[C@H]2[C@H](O)[C@@H](O)[C@@H](O[C@H]3[C@H](O)[C@@H](O)[C@@H](O[C@H]4[C@H](O)[C@@H](O)C(O)O[C@@H]4CO)O[C@@H]3CO)O[C@@H]2CO)[C@H](O)[C@@H](O)[C@@H]1O (stereo partly shown) [maltotetraose] | 15.4 | 0 | 11.0 | 12.4 | 15.1 | 15.4 | – | – | – | – | – |
| OC[C@H]1O[C@H](O[C@H]2[C@H](O)[C@@H](O)[C@@H](O[C@H]3[C@H](O)[C@@H](O)C(O)O[C@@H]3CO)O[C@@H]2CO)[C@H](O)[C@@H](O)[C@@H]1O (stereo partly shown) [maltotriose] | 35.9 | 26.3 | 42.6 | 42.8 | 39.3 | 35.9 | – | 647 | 12 | 18 | – |
| OC[C@H]1O[C@H](OC[C@H]2O[C@H](O[C@H]3[C@H](O)[C@@H](O)C(O)O[C@@H]3CO)[C@H](O)[C@@H](O)[C@@H]2O)[C@H](O)[C@@H](O)[C@@H]1O (stereo partly shown) [panose] | 21.2 | 5.7 | 14.7 | 16.1 | 18.9 | 21.2 | – | – | – | – | – |
| dextran | – | – | – | – | – | – | No activity | – | – | – | α-glucosidase activity detected on substrate [3]: not detected |
| glycogen | – | – | – | – | – | – | – | 197 | – | – | – |
| maltodextrin | – | – | – | – | – | – | – | 747 | – | 21 | – |
| maltose | 69.2 | 183.4 | 103.0 | 94.4 | 78.1 | 69.2 | – | 1172 | 23 | 30 | – |
| pullulan | – | – | – | – | – | – | No activity | – | – | – | – |
| starch | – | – | – | – | – | – | – | – | 4.29 | 23 | reduction of the polysaccharide concentration (X. dendrorhous MYA-131; 50 hours of culture): 10%; reduction of the polysaccharide concentration (X. dendrorhous MYA-131; 60 hours of culture): 20%; reduction of the polysaccharide concentration (X. dendrorhous MYA-131; 70 hours of culture): 40%; reduction of the polysaccharide concentration (X. dendrorhous MYA-131; 80 hours of culture, remained constant up to 300 hours): 60%; decrease of the starch in the extracellular medium (X. dendrorhous MYA-131; first 30 hours of culture): not observed; Kcat [4]: 1.43 s⁻¹; Km [4]: 880 µM |
